Patent US20120142730A1 (priority 2010, published 2012)

Test system: subjects with relapsing remitting multiple sclerosis (RRMS)
Test: ALLEGRO phase III trial: MRI endpoints (lesions, brain volume, MTR, 1H-MRS)
Assay type: in vivo, human
Set-up: key to BA from M12 to M24: percent change of brain volume (SIENA); Change in average MTR of T2 visible lesions / T2 volume / Hypointense T1 volume / GdE volume: unit not given here
Settings: for BA at month 12, reduction / BA (brain atrophy, percent brain volume change) at month 12: baseline to 12 months
Method: Eligible subjects were equally randomized 1:1 into one of the following treatment arms: • 1. […] 21, 2007 (see, page 10, line 5 to page 11, line 3). • 2. Matching placebo for laquinimod arm: one capsule is administered once daily. MRI related secondary endpoints were the cumulative number of GdE lesions at months 12 and 24; and the cumulative number of new T2 lesions (relative to previous scan) at months 12 and 24; MRI exploratory endpoints included percent change of brain volume using SIENA.^10 Additional MRI methodological details are as follows: In all patients, MRI scans were performed at 0, 12, and 24 months. Before a site could enrol study participants they were required to image a volunteer patient with definite MS twice with repositioning according to a strict study imaging protocol using scanners with a minimum field strength of 1.5T. Fast/turbo spin echo (repetition time [TR]=2200-3500 ms, echo time [TE]=14-50/90-120 ms, echo train length=2-7, slice thickness=3 mm, and contiguous axial slices= • 44) sequences were used to obtain proton density and T2-weighted images. High resolution pre-contrast 3D T1-weighted sequences (TR=8-15 ms, TE=3-5 ms, inversion time=1.1 s, number of slices 160, slice thickness 1.2 mm, flip angle [FA]=10-15, orientation sagittal) were acquired for quantification of brain atrophy. Finally, T1-weighted images (1.5 T scanners: conventional spin echo sequence; TR=600-650 ms, TE=10-20 ms, slice thickness=3 mm, and contiguous axial slices=44; 3.0 T scanners: 3D sequence; TR=5-9 ms, TE=2-5 ms, FA=15, slice thickness=3 mm, and contiguous axial slices=44) were obtained 5 minutes after injection of 0.1 mmol/kg of gadolinium. A series of axial, coronal, and sagittal images was obtained to create an axial reference scan for subsequent careful repositioning of each patient at the follow-up session. Axial slices were positioned to run parallel to a line joining the most inferioanterior and inferioposterior parts of the corpus callosum. Image quality was reviewed at the MRI-AC using predetermined criteria. The identification of GdE and T2-hyperintense lesions was done by consensus of two experienced observers. The number of total and new GdE lesions and new/enlarging T2-hyperintense lesions were counted. The identified lesions were then outlined by trained technicians using a semiautomated segmentation technique based on local thresholding (Jim 4.0; […] System, Leicester, UK) and lesion volumes were calculated automatically. Percentage brain volume changes and cross-sectional normalized brain volumes were measured on […] T1-weighted images, with Structural Image Evaluation of Normalized Atrophy (SIENA) software and a cross-sectional method ([…]) (available from the FMRIB Software Library, Oxford University, Oxford, UK; http://www.fmrib.ox.ac.uk/analysis/research/[…]). Analyses of the secondary MRI endpoints of the cumulative number of GdE and new/enlarging T2 lesions at 12 and 24 months involved a baseline-adjusted negative binomial regression with an “offset” employing the log of the relative exposure to adjust for early-terminated patients. The model included as covariates the number of enhancing lesions at baseline, and country or geographical region. In the case of new/enlarging T2 lesion analysis, the baseline T2 lesion volume was also added. […] The analysis of the brain atrophy endpoint involved a baseline-adjusted analysis of covariance (ANCOVA). The covariates were the number of GdE lesions at baseline and the country or region. The exploratory endpoints were all analyzed at a significance level of 5%. Secondary endpoints of the ALLEGRO trial included disease activity as measured by MRI, including counts of Gadolinium enhancing T1 lesions and new-T2 hyperintense lesions. […] Conventional MRI scans for new T1 hypointense lesions, and brain volume using SIENA were performed at baseline, 12 and 24 months. […]

[1] = 0.6 mg daily oral vs placebo, listed as laquinimod
[2] = 0.6 mg daily oral, listed as laquinimod
[3] = post-hoc, not naïve, vs placebo

SMILES: CCN(C(=O)c1c(O)c2c(Cl)cccc2n(C)c1=O)c1ccccc1 [Laquinimod, laquinimod]
- Cumulative new Hypointense T1 lesions months 12 + 24, mean (0.6 mg daily oral): 1.468
- Cumulative number of GdE lesions at months 12 and 24, mean (0.6 mg daily oral): 1.332
- Cumulative number of GdE lesions at months 12 and 24, median (0.6 mg daily oral): 0.00
- Cumulative number of new/enlarging T2 lesions at 12 and 24 months, mean (0.6 mg daily oral): 5.032
- Cumulative new Hypointense T1 lesions months 12 + 24, reduction (0.6 mg daily oral vs placebo): 27% reduction
- Cumulative number of new/enlarging T2 lesions at 12 and 24 months, reduction (0.6 mg daily oral vs placebo): 30% reduction
- Percent change of brain volume baseline to month 24, reduction in brain atrophy (0.6 mg daily oral vs placebo): 32.8% reduction
- Percent change of brain volume from baseline to month 24, adjusted mean difference (0.6 mg daily oral vs placebo): 0.426
- BA at month 12, reduction (0.6 mg daily oral vs placebo): 53% reduction
- BA at month 12, reduction [1]: 51.7%
- Cumulative new Hypointense T1 lesions months 12 + 24, reduction [1]: 26.7%
- Cumulative number of new/enlarging T2 lesions at 12 and 24 months, reduction [1]: 30%
- Percent change of brain volume baseline to month 24, reduction in brain atrophy [1]: 32.8%
- Percent change of brain volume from baseline to month 24, adjusted mean change (0.6 mg daily oral, SIENA): −0.871%
- BA (brain atrophy, percent brain volume change) at month 12 (0.6 mg daily oral): −0.358%
- BA (brain atrophy, percent brain volume change) at month 12 [2]: −0.358%
- Cumulative new Hypointense T1 lesions months 12 + 24, mean [2]: 1.47
- Adjusted mean change in NAA/Cr from baseline to month 24 (1H-MRS subgroup, n=12): 0.087
- Change in average MTR of T2 visible lesions (MT MRI subgroup, n=43): −0.005
- Change in mean MTR whole brain from baseline to last observed value (LOV) (MT MRI subgroup, n=44): +0.045
- Change in mean MTR whole brain baseline to LOV, difference from placebo (MT MRI subgroup, p=0.0180): 0.483
- Change in average MTR of T2 visible lesions, difference from placebo (MT MRI subgroup, p=0.1007): 0.330
- Hypointense T1 volume, change BL to M24 (baseline to month 24): 7%^
- T2 volume, change BL to M24 (baseline to month 24): 11.5%^
- Hypointense T1 volume (month 12): 2.805
- T2 volume (month 12): 8.005
- Hypointense T1 volume, effect (month 12, vs placebo): ~1%
- T2 volume, effect (month 12, vs placebo): 5%
- Hypointense T1 volume (month 24): 2.829
- T2 volume (month 24): 8.111
- Hypointense T1 volume, effect (month 24, vs placebo): ~1%
- T2 volume, effect (month 24, vs placebo): 5%
- BA for pts with all scans, change BL to M12 (post-hoc): −0.337
- BA for pts with all scans, change BL to M24 (post-hoc): −0.855
- BA from M12 to M24 (post-hoc): −0.548
- % BV change M24 (post-hoc, GdE = 0): −0.859%
- % BV change M24, reduction (post-hoc, GdE = 0, vs placebo): 30% reduction
- % BV change M24 (post-hoc, GdE > 0): −0.881%
- % BV change M24, reduction (post-hoc, GdE > 0, vs placebo): 37% reduction
- GdE counts (post-hoc, M12): 0.731
- GdE lesion free (post-hoc, M12): 69% ^
- GdE volume (post-hoc, M12): 1.058
- New T2 lesion # (post-hoc, M12): 2.81
- New-T1 Hypointense Lesions (post-hoc, M12): 1.074
- T1 Hypointense Lesion free (post-hoc, M12): 56.3% ^
- T2 lesion free (post-hoc, M12): 30.8% ^
- GdE counts, reduction (post-hoc, M12, vs placebo): 36% reduction
- GdE lesion free, effect on odds (post-hoc, M12, vs placebo): 49% odds
- GdE volume, effect (post-hoc, M12, vs placebo): 4.5%
- New T2 lesion #, effect (post-hoc, M12, vs placebo): 33.5%
- New-T1 Hypointense Lesions, reduction (post-hoc, M12, vs placebo): 27% reduction
- T1 Hypointense Lesion free, effect on odds (post-hoc, M12, vs placebo): 28% odds
- T2 lesion free, effect on odds (post-hoc, M12, vs placebo): 39% odds
- GdE counts (post-hoc, M24): 0.482
- GdE lesion free (post-hoc, M24): 74.5% ^
- GdE volume (post-hoc, M24): 1.045
- New T2 lesion # (post-hoc, M24): 4.45
- New-T1 Hypointense Lesions (post-hoc, M24): 1.230
- T1 Hypointense Lesion free (post-hoc, M24): 52.8% ^
- T2 lesion free (post-hoc, M24): 20.3% ^
- GdE counts, reduction (post-hoc, M24, vs placebo): 39% reduction
- GdE lesion free, effect on odds (post-hoc, M24, vs placebo): 72% odds
- GdE volume, effect (post-hoc, M24, vs placebo): 4.7%
- New T2 lesion #, effect (post-hoc, M24, vs placebo): 31.5%
- New-T1 Hypointense Lesions, reduction (post-hoc, M24, vs placebo): 32% reduction
- T1 Hypointense Lesion free, effect on odds (post-hoc, M24, vs placebo): 47% odds
- T2 lesion free, effect on odds (post-hoc, M24, vs placebo): 40% odds
- % BVC BL to M24 (post-hoc, MRI free NO): −1.001%
- % BVC BL to M24, effect (post-hoc, MRI free NO, vs placebo): 65.5%
- % BVC BL to M24 (post-hoc, MRI free YES): −0.533%
- % BVC BL to M24, effect (post-hoc, MRI free YES, vs placebo): 45.5%
- % BV change by previous medications (post-hoc, naïve): −0.82%
- Cum # T1 GdE by previous medications (post-hoc, naïve): 1.135
- Cum New T2 by previous medications (post-hoc, naïve): 4.967
- T1 hypointense by previous medications (post-hoc, naïve): 1.585
- % BV change by previous medications, reduction (post-hoc, naïve, vs placebo): 38% reduction
- Cum # T1 GdE by previous medications, reduction (post-hoc, naïve, vs placebo): 42% reduction
- Cum New T2 by previous medications, reduction (post-hoc, naïve, vs placebo): 33% reduction
- T1 hypointense by previous medications, reduction (post-hoc, naïve, vs placebo): 28% reduction
- Cum # T1 GdE by previous medications (post-hoc, not naive): 1.746
- Cum # T1 GdE by previous medications, reduction (post-hoc, not naive, vs placebo): 32% reduction
- % BV change by previous medications (post-hoc, not naïve): −0.954%
- Cum New T2 by previous medications (post-hoc, not naïve): 5.075
- T1 hypointense by previous medications (post-hoc, not naïve): 1.217
- % BV change by previous medications, reduction [3]: 23% reduction
- Cum New T2 by previous medications, reduction [3]: 24% reduction
- T1 hypointense by previous medications, reduction [3]: 25% reduction
- BA for pts with all scans, change BL to M12, effect (post-hoc, vs placebo): 60%
- BA for pts with all scans, change BL to M24, effect (post-hoc, vs placebo): 57%
